Mortality and melting point data for 15 molecules are collected here from patent US20240365784A1, “AZOLE COMPOUNDS FOR CONTROLLING INVERTEBRATE PESTS” (FMC Corporation, priority 2021, published 2024).

A value given as a limit tells only on which side of the number the result lay.

Data set [1] concerns corn planthopper (Peregrinus maidis (Ashmead)). As to the kind of experiment: whole plant or invertebrate. It counts as in vivo. The note with it: 144 h, corn plant, nymphs, assessed after 6 days; for mortality at 10 ppm: sprayed at 10 ppm; for mortality at 50 ppm: sprayed at 50 ppm. Here is the method: (§1) Test compounds were formulated using a solution containing 10% acetone, 90% water and 300 ppm Activator 90® non-ionic surfactant (Loveland Products, Loveland, Colorado, USA). The formulated compounds were applied in 1 mL of liquid through an atomizer nozzle positioned 1.27 cm (0.5 inches) above the top of each test unit. Test compounds were sprayed at the rates indicated, and each test was replicated three times.
For evaluating control of corn planthopper (Peregrinus maidis (Ashmead)) through contact and/or systemic means, the test unit consisted of a small open container with a 3-4-day-old corn (maize) plant inside. White sand was added to the top of the soil prior to application of the test compound.
Test compounds were formulated and sprayed at 250 and/or 50 ppm and/or 10 ppm. After spraying of the formulated test compound, the test units were allowed to dry for 1 h before they were post-infested with ˜15-20 nymphs (18-to-21-day-old). A black, screened cap was placed on the top of each test unit, and the test units were held for 6 days in a growth chamber at 22-24° C. and 50-70% relative humidity. Each test unit was then visually assessed for insect mortality.

Data set [2] deals with green peach aphid (Myzus persicae (Sulzer)). As to the kind of experiment: whole plant or invertebrate. It counts as in vivo. To be noted: 144 h, sprayed at 50 ppm, radish plant, assessed after 6 days. Here is the method:
as §1
For evaluating control of green peach aphid (Myzus persicae (Sulzer)) through contact and/or systemic means, the test unit consisted of a small open container with a 12-15-day-old radish plant inside. This was pre-infested by placing on a leaf of the test plant 30-40 aphids on a piece of leaf excised from a culture plant (cut-leaf method). The aphids moved onto the test plant as the leaf piece desiccated. After pre-infestation, the soil of the test unit was covered with a layer of sand.
Test compounds were formulated and sprayed at 250 and/or 50 ppm. After spraying of the formulated test compound, each test unit was allowed to dry for 1 hour and then a black, screened cap was placed on top. The test units were held for 6 days in a growth chamber at 19-21° C. and 50-70% relative humidity. Each test unit was then visually assessed for insect mortality.

The subject of data set [3] is cotton melon aphid (Aphis gossypii (Glover)). In words: whole plant or invertebrate. It counts as in vivo. To be noted: 144 h, okra plant, assessed after 6 days; for mortality at 50 ppm: sprayed at 50 ppm; for mortality at 10 ppm: tested at 10 ppm. Here is the method: as §1
For evaluating control of cotton melon aphid (Aphis gossypii (Glover)) through contact and/or systemic means, the test unit consisted of a small open container with a 5-day-old okra plant inside. This was pre-infested with 30-40 insects on a piece of leaf according to the cut-leaf method, and the soil of the test unit was covered with a layer of sand.
[…] After spraying, the test units were maintained in a growth chamber for 6 days at 19° C. and 70% relative humidity. Each test unit was then visually assessed for insect mortality.

Data set [4] concerns Brown Planthopper (Nilaparvata lugens (Stil)). In words: Test F: control of Brown Planthopper, spray, contact and/or systemic. It counts as in vivo. To be noted: 120 h, sprayed at 10 ppm, rice stems, nymphs, assessed after 5 days. As to the method:
as §1
For evaluating control of Brown Planthopper (Nilaparvata lugens (Stil)) through contact and/or systemic means, the test unit consisted of a small open container with 6-10 25-day-old rice stems inside. White sand was added to the top of the soil prior to application of the test compound.
Test compounds were formulated and sprayed at 50 ppm and/or 10 ppm. After spraying of the formulated test compound, the test units were allowed to dry for 1 h before they were post-infested with ˜15-20 nymphs (15-to-17-day-old). A black, screened cap was placed on the top of each test unit, and the test units were held for 5 days in a growth chamber at 28° C. and 65% relative humidity. Each test unit was then visually assessed for insect mortality.

Data set [5] has as its system sweetpotato whitefly (Bemisia tabaci (Gennadius)). As to the kind of experiment: whole plant or invertebrate. To be noted: 312 h, cotton plant infested with eggs, assessed after 13 days; for mortality at 50 ppm: sprayed at 50 ppm; for mortality at 10 ppm: tested at 10 ppm. It counts as in vivo. As to the method:
as §1
For evaluating control of the sweetpotato whitefly (Bemisia tabaci (Gennadius)) through contact and/or systemic means, the test unit consisted of a small open container with a 12-14-day-old cotton plant inside. Prior to the spray application, both cotyledons were removed from the plant, leaving one true leaf for the assay. Adult whiteflies were allowed to lay eggs on the plant and then were removed from the test unit. Cotton plants infested with at least 15 eggs were submitted to the test for spraying.
[…] After spraying, the test units were allowed to dry for 1 hour. The cylinders were then removed, and the units were taken to a growth chamber and held for 13 days at 28° C. and 50-70% relative humidity. Each test unit was then visually assessed for insect mortality.

For data set [6], the system named is green peach aphid (Myzus persicae (Sulzer)). In words: whole plant or invertebrate. To be noted: 144 h, tested at 10 ppm, radish plant, assessed after 6 days. It counts as in vivo.
Data set [7] concerns potato leafhopper (Empoasca fabae (Harris)). In words: Test B: control of potato leafhopper, spray, contact and/or systemic. To be noted: tested at 50 ppm; Soleil bean plant, adults, assessed after 6 days. It counts as in vivo. Here is the method:
as §1
Each test unit was then visually assessed for insect mortality.

One may read the mortality as the share of the test organisms that died. On to `CC(c1ccc(SC(F)(F)F)cc1)c1c(F)cncc1-n1nccn1` (centres unmarked) [Compound 8], for which the mortality at 10 ppm in data set [1], in data set [3] and in data set [4] was at least 80% in each case. In addition, the mortality at 50 ppm in data set [1], in data set [2] and in data set [3] was at least 80% each time.
With `FC(F)(F)Sc1ccc(Cc2c(Cl)cncc2-n2cccn2)cc1` [Compound 20], the mortality at 10 ppm in data set [1] was at least 80%; in data set [3], at least 80%; in data set [5], at least 70%; in data set [4], at least 80%. The mortality at 50 ppm is at least 80% in data set [1], at least 80% in data set [2], at least 80% in data set [3] and at least 70% in data set [5].
In the case of `FC(F)(F)Sc1ccc(Cc2c(Br)cncc2-n2nccn2)cc1` [Compound 26], the mortality at 10 ppm in data set [1] was at least 80%; in data set [3], at least 80%; in data set [5] it was at least 70%; in data set [4], at least 80%; in data set [6], at least 80%. Further, the mortality at 50 ppm in data set [1] is at least 80%; in data set [2] it was at least 80%; in data set [3], at least 80%; in data set [5], at least 70%.
On to `Fc1cncc(-n2cccn2)c1Cc1ccc(SC(F)(F)F)cc1` [Compound 19], for which the mortality at 10 ppm in data set [1] is at least 80%; in data set [3] it was at least 80%; in data set [5] it was at least 70%; in data set [4] it was at least 80%. In addition, the mortality at 50 ppm in data set [2] is at least 80%; in data set [3] it was at least 80%; in data set [5], at least 70%.
For `FC(F)(F)Sc1ccc(Cc2c(Cl)cncc2-n2cncn2)cc1` [Compound 21], the mortality at 50 ppm is at least 80% in data set [2], at least 80% in data set [3] and at least 70% in data set [5]. For the same molecule, the mortality at 10 ppm in data set [5] was at least 70%; in data set [6], at least 80%.
Regarding `Fc1cc(Cc2c(Cl)cncc2-n2nccn2)ccc1OC(F)(F)F` [Compound 70], the mortality at 10 ppm in data set [1], in data set [3] and in data set [6] was at least 80% throughout. In addition, the mortality at 50 ppm in data set [1], in data set [2] and in data set [3] was at least 80% throughout.
`Cc1cnn(-c2cncc(F)c2Cc2ccc(OC(F)(F)F)cc2)n1` [Compound 3, 3-fluoro-5-(4-methyltriazol-2-yl)-4-[[4-(trifluoromethoxy)phenyl]methyl]pyridine]: the mortality result in data set [7] is “at least 80%”.
As for `Fc1cncc(-n2cncn2)c1Cc1ccc(SC(F)(F)F)cc1` [Compound 24], the mortality at 50 ppm in data set [2] and in data set [3] was at least 80% throughout. In addition, the mortality at 10 ppm in data set [6] was at least 80%.
As usually defined, the melting point is the temperature of the solid-liquid transition. For the molecule `[O-][S+](c1ccc(Cc2ccncc2-n2nccn2)cc1)C(F)(F)F` (centres unmarked) [Compound 28], the melting point was in the range of 81 to 84 °C.
Take `Fc1cncc(-n2nccn2)c1Cc1ccc(SC(F)(F)F)cc1` [Compound 2]: the mortality at 10 ppm in data set [1], in data set [3], in data set [4] and in data set [6] was at least 80% throughout. The mortality at 50 ppm in data set [1], in data set [2] and in data set [3] was at least 80% throughout.
`Fc1cncc(-n2nccn2)c1Cc1ccc(Br)cc1` [Compound 31] returned a melting point of 80 to 83 °C.
Consider `FC(F)(F)Sc1ccc(Cc2c(Cl)cncc2-n2nccn2)cc1` [Compound 5], for which the mortality at 10 ppm in data set [1] was at least 80%; in data set [5], at least 70%; in data set [4], at least 80%; in data set [6], at least 80%. The mortality at 50 ppm in data set [1] is at least 80%; in data set [2] it was at least 80%; in data set [3], at least 80%; in data set [5], at least 70%.
With `CC(c1ccc(SC(F)(F)F)cc1)c1c(Cl)cncc1-n1cncn1` (centres unmarked) [Compound 51], the mortality at 50 ppm in data set [1] is at least 80%; in data set [2] it was at least 80%; in data set [3], at least 80%; in data set [5] it was at least 70%.
Consider `Fc1cncc(-n2nccn2)c1Cc1ccc(OC(F)(F)F)cc1` [Compound 1, 3-fluoro-5-(triazol-2-yl)-4-[[4(trifluoromethoxy)phenyl]methyl]pyridine], for which the mortality at 10 ppm in data set [1] and in data set [4] was at least 80% throughout. Moreover, the mortality at 50 ppm in data set [1] is at least 80%; in data set [2], at least 80%; in data set [5] it was at least 70%.
With `FC(F)(F)Oc1ccc(Cc2c(Cl)cncc2-n2nccn2)cc1Cl` [Compound 71], the results for the mortality at 10 ppm in data set [1] and in data set [5] were at least 80% and at least 70%, respectively. In addition, the mortality at 50 ppm is at least 80% in data set [1], at least 80% in data set [2], at least 80% in data set [3] and at least 70% in data set [5].
